Data from PubChem BioAssay AID2060604 (Molecular Pharmacology Branch, DTP, NCI, 2025).

Tested on: 379773-124-R-J2-PDC complex spheroids, viability % test/control
Assay: Anticancer human tumor 379773-124-R-J2-PDC patient-derived endometrial carcinoma cell line growth inhibition [CLK]
Settings: for IC50: curve of first compound; for viability, T/C: stronger effect = lower value; active means viability on the fitted dose curve at most 10% of control; inactive means the rest
Text: A high-throughput screen of multi-cell type tumor spheroids was designed to identify active combinations of […] and targeted small molecules. Complex spheroids include a stromal component modeled by human endothelial cells (HUVEC) and fibroblasts modeled by human mesenchymal stem cells (MSCs). The concentration ranges selected for each drug and investigational agent were based upon clinically achievable concentrations if the clinical Cmax of the agent was known.
Compounds. The drugs and investigational agents: cirtuvivint (SM08502; NSC835563), CC-671 (NSC850746), vemurafenib (NSC761431), tapotoclax (NSC804041), sotorasib (NSC818433), adagrasib (NSC831453), MRTX-1133 (NSC836407), BAY2416964 (NSC825713), copanlisib (NSC816437), inavolisib (NSC800729), abemaciclib (NSC768073), osimertinib (NSC779217), entinostat (NSC756642), eltanexor (KPT-8602, NSC794443), venetoclax (NSC766270), ceralasertib (NSC777638), bortezomib (NSC756655), olaparib (NSC753686), talazoparib (NSC767125), alisertib (NSC759677), peposertib (NSC802822), gemcitabine (NSC613327), 5-fluorouracil (NSC19893), SN-38 (NSC673596), oxaliplatin (NSC266046), paclitaxel (NSC125973), and doxorubicin (NSC123127), were obtained from the National Cancer Institute (NCI) Developmental Therapeutics Program Chemical Repository. The FDA-approved anticancer drug set is available from the Developmental Therapeutics Program at https://dtp.cancer.gov/organization/dscb/obtaining/available plates.htm. […] The stock solutions were prepared in dimethyl sulfoxide (DMSO, Sigma-Aldrich, St. Louis, MO, cat. D2650), except for the platinum complexes which were prepared in saline (Quality Biological, Gaithersburg, MD, cat. 114-055-101), at 800-fold the tested concentration and stored at -70 degrees C prior to their use. All drugs and investigational agents were tested over a range starting from a high concentration at or near the clinical Cmax and decreasing in half-log increments. If the clinical Cmax for an agent had not been determined, the highest concentration tested was 10 microM.
Cell Culture. All cells were maintained in an incubator at 37 degrees C and 5% CO2 with 95% humidity. The PDC lines were cultured according to standard operating procedures established by the NCI PDMR. Briefly, all PDCs were thawed and cultured in Matrigel-coated flasks prepared with a working solution of 1X Ham's F-12 nutrient mix, without supplementation (Invitrogen, Waltham, MA, cat. 11765054), 100 U/mL penicillin-streptomycin (Invitrogen, cat. 15140122), and 2.5% Matrigel (Corning Inc., Corning, NY, cat. 354248) for the first three passages. The 947758-054-R-J2-PDC line was cultured in 6B/Colon 1A media, which includes advanced DMEM/F-12 (Thermo Fisher Scientific, cat. 12634028), 10 mM HEPES (Thermo Fisher Scientific, cat. 15630080), 1X GlutaMAX supplement (Thermo Fisher Scientific, cat. 35050061), 0.1 mg/mL primocin (InvivoGen, cat. ant-pm-2), 10% defined fetal bovine serum, heat inactivated (HyClone Laboratories Inc., cat. SH30070.03HI), 1.25 mM N-Acetyl-L-cysteine (Sigma-Aldrich, cat. A9165), 10 mM nicotinamide (Sigma-Aldrich, cat. N0636), 1X B-27 supplement (Thermo Fisher Scientific, cat. 17504044), 1X N-2 supplement (Thermo Fisher Scientific, cat. 17502048), and 10 microM Y-27632 dihydrochloride (Tocris Bioscience, cat. 1254). The 876862-298-R-J1-PDC was cultured in 6E media, which includes all 6B/Colon 1A media components plus 50% L-WRN conditioned media (ATCC, cat. CRL-3276), 50 ng/mL recombinant human EGF recombinant protein (hEGF; Thermo Fisher Scientific, cat. PHG0311), 10 ng/mL recombinant human fibroblast growth factor 10 (hGFG-10; PeproTech, cat. 100-26), 1 ng/mL recombinant human fibroblast growth factor 2 (hFGF-2; PeproTech, cat. 100-18B), and 1 µM prostaglandin E2 (PGE2; Tocris, cat. 2296). The 227483-062-R1-J1-PDC line was cultured in Panc media, containing all 6E components except hFGF-2, with the addition of 500 nM SB-431542 (Selleckchem, cat. S1067) and 10 nM gastrin (Tocris, cat. 3006). […]

[1] = second compound 0.0316 µM, first compound 0.0316 µM
[2] = second compound 0.0316 µM, first compound 0.1 µM
[3] = second compound 0.0316 µM, first compound 0.316 µM
[4] = second compound 0.0316 µM, first compound 1 µM
[5] = second compound 0.1 µM, first compound 0.0316 µM
[6] = second compound 0.1 µM, first compound 0.1 µM
[7] = second compound 0.1 µM, first compound 0.316 µM
[8] = second compound 0.1 µM, first compound 1 µM
[9] = second compound 0.316 µM, first compound 0.0316 µM
[10] = second compound 0.316 µM, first compound 0.1 µM
[11] = second compound 0.316 µM, first compound 0.316 µM
[12] = second compound 0.316 µM, first compound 1 µM
[13] = second compound 1 µM, first compound 0.0316 µM
[14] = second compound 1 µM, first compound 0.1 µM
[15] = second compound 1 µM, first compound 0.316 µM
[16] = second compound 1 µM, first compound 1 µM
[17] = second compound 3.16 µM, first compound 0.0316 µM
[18] = second compound 3.16 µM, first compound 0.1 µM
[19] = second compound 3.16 µM, first compound 0.316 µM
[20] = second compound 3.16 µM, first compound 1 µM
[21] = second compound 10 µM, first compound 0.0316 µM
[22] = second compound 10 µM, first compound 0.1 µM
[23] = second compound 10 µM, first compound 0.316 µM
[24] = second compound 10 µM, first compound 1 µM
[25] = second compound 0.0316 µM, first compound 0.00316 µM
[26] = second compound 0.0316 µM, first compound 0.01 µM
[27] = second compound 0.1 µM, first compound 0.00316 µM
[28] = second compound 0.1 µM, first compound 0.01 µM
[29] = second compound 0.316 µM, first compound 0.00316 µM
[30] = second compound 0.316 µM, first compound 0.01 µM
[31] = second compound 1 µM, first compound 0.00316 µM
[32] = second compound 1 µM, first compound 0.01 µM
[33] = second compound 3.16 µM, first compound 0.00316 µM
[34] = second compound 3.16 µM, first compound 0.01 µM
[35] = second compound 10 µM, first compound 0.00316 µM
[36] = second compound 10 µM, first compound 0.01 µM
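Further: compound exposure lasted seven days before the viability readout.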
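Wherever viability, T/C is given: 100% = DMSO vehicle control wells.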

CC(Nc1ccc2c(c1)OCCn1cc(N3C(=O)OCC3C(F)F)nc1-2)C(N)=O (stereo unspecified) + CN1CCN(c2cc(C(=O)Nc3cc4cc(-c5cnn(C)c5)ccc4cn3)ccn2)CC1
inactive: viability, T/C [1] 85.2% | viability, T/C [2] 89.8% | viability, T/C [3] 69.3% | viability, T/C [4] 89.3% | viability, T/C (second compound 0.0316 µM, first compound 3.16 µM) 68.6% | viability, T/C (second compound 0.0316 µM, first compound 10 µM) 62.5% | viability, T/C [5] 92.4% | viability, T/C [6] 81.8% | viability, T/C [7] 87.2% | viability, T/C [8] 68.9% | viability, T/C (second compound 0.1 µM, first compound 3.16 µM) 84.2% | viability, T/C (second compound 0.1 µM, first compound 10 µM) 46.2% | viability, T/C [9] 19.4% | viability, T/C [10] 22.5% | viability, T/C [11] 21.1% | viability, T/C [12] 18.9% | viability, T/C (second compound 0.316 µM, first compound 3.16 µM) 22.9% | viability, T/C (second compound 0.316 µM, first compound 10 µM) 11.4%
< 31.6 nM: IC50 (second compound 0.316 µM) | IC50 (second compound 1 µM) | IC50 (second compound 3.16 µM) | IC50 (second compound 10 µM)
8870 nM: IC50 (second compound 0.1 µM)
> 10000 nM: IC50 (second compound 0.0316 µM)
active: viability, T/C [13] 0.15% | viability, T/C [14] 0.14% | viability, T/C [15] 0.75% | viability, T/C [16] 0.56% | viability, T/C (second compound 1 µM, first compound 3.16 µM) 0.08% | viability, T/C (second compound 1 µM, first compound 10 µM) 0.1% | viability, T/C [17] 0.84% | viability, T/C [18] 0.13% | viability, T/C [19] 0.14% | viability, T/C [20] 0.52% | viability, T/C (second compound 3.16 µM, first compound 3.16 µM) 0.43% | viability, T/C (second compound 3.16 µM, first compound 10 µM) 0.48% | viability, T/C [21] 0.1% | viability, T/C [22] 0.12% | viability, T/C [23] 0.71% | viability, T/C [24] 1.07% | viability, T/C (second compound 10 µM, first compound 3.16 µM) 0.4% | viability, T/C (second compound 10 µM, first compound 10 µM) 0.19%

CCN1CCN(Cc2ccc(Nc3ncc(F)c(-c4cc(F)c5nc(C)n(C(C)C)c5c4)n3)nc2)CC1 + CN1CCN(c2cc(C(=O)Nc3cc4cc(-c5cnn(C)c5)ccc4cn3)ccn2)CC1
< 3.16 nM: IC50 (second compound 0.316 µM) | IC50 (second compound 1 µM) | IC50 (second compound 3.16 µM) | IC50 (second compound 10 µM)
> 1000 nM: IC50 (second compound 0.0316 µM) | IC50 (second compound 0.1 µM)
inactive: viability, T/C [25] 90.3% | viability, T/C [26] 85.3% | viability, T/C [1] 82.2% | viability, T/C [2] 98% | viability, T/C [3] 86% | viability, T/C [4] 79.6% | viability, T/C [27] 101% | viability, T/C [28] 76.5% | viability, T/C [5] 76.9% | viability, T/C [6] 80.7% | viability, T/C [7] 78.1% | viability, T/C [8] 72% | viability, T/C [29] 32.4% | viability, T/C [30] 26% | viability, T/C [9] 30.9% | viability, T/C [10] 30.3% | viability, T/C [11] 39.7% | viability, T/C [12] 32.5%
active: viability, T/C [31] 0.18% | viability, T/C [32] 0.18% | viability, T/C [13] 1.15% | viability, T/C [14] 0.3% | viability, T/C [15] 0.96% | viability, T/C [16] 2.04% | viability, T/C [33] 0.11% | viability, T/C [34] 0.15% | viability, T/C [17] 0.25% | viability, T/C [18] 0.83% | viability, T/C [19] 0.11% | viability, T/C [20] 0.44% | viability, T/C [35] 1.88% | viability, T/C [36] 1.3% | viability, T/C [21] 0.17% | viability, T/C [22] 1.36% | viability, T/C [23] 0.15% | viability, T/C [24] 0.16%

COc1c(OCCCN2CCOCC2)ccc2c3n(c(=NC(=O)c4cnc(N)nc4)nc12)CCN3 + CN1CCN(c2cc(C(=O)Nc3cc4cc(-c5cnn(C)c5)ccc4cn3)ccn2)CC1
70.5 nM: IC50 (second compound 0.0316 µM)
active: viability, T/C [3] 10.9% | viability, T/C [4] 2.85% | viability, T/C [7] 6.86% | viability, T/C [8] 2.02% | viability, T/C [11] 3.33% | viability, T/C [12] 1.61% | viability, T/C [31] 0.15% | viability, T/C [32] 0.35% | viability, T/C [13] 0.15% | viability, T/C [14] 0.11% | viability, T/C [15] 0.09% | viability, T/C [16] 0.08% | viability, T/C [33] 0.07% | viability, T/C [34] 0.45% | viability, T/C [17] 0.29% | viability, T/C [18] 0.11% | viability, T/C [19] 0.11% | viability, T/C [20] 0.1% | viability, T/C [35] 0.16% | viability, T/C [36] 0.13% | viability, T/C [21] 0.92% | viability, T/C [22] 0.79% | viability, T/C [23] 0.79% | viability, T/C [24] 0.15%
50.6 nM: IC50 (second compound 0.1 µM)
< 3.16 nM: IC50 (second compound 0.316 µM) | IC50 (second compound 1 µM) | IC50 (second compound 3.16 µM) | IC50 (second compound 10 µM)
inactive: viability, T/C [25] 94.2% | viability, T/C [26] 92.8% | viability, T/C [1] 87.6% | viability, T/C [2] 33.5% | viability, T/C [27] 89.6% | viability, T/C [28] 74.7% | viability, T/C [5] 65.4% | viability, T/C [6] 31.4% | viability, T/C [29] 21% | viability, T/C [30] 23.7% | viability, T/C [9] 18.5% | viability, T/C [10] 6.99%
